Laboratory results as given in the supplement of paper PMC6045584.
± gives the standard deviation of the averaged measurements.

What was measured:
[1] = compound: COc1ccc(-c2cc3c(C)nc(N)nc3n([C@H]3CC[C@H](OCCO)CC3)c2=O)cn1; assay: surviving fraction relative to DMSO-only wells; higher = less growth inhibition; conditions: exposure time: 5 days
How it was run: (§1)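 Lines were retained only if, across three screens, replicate Pearson r was >0.7 and median Z' was >0.3. Viability was measured as CellTiter-Glo luminescence and reported as surviving fraction relative to the median of DMSO-only wells. Readings followed 10 minutes at room temperature, after log-phase tumour cells seeded at 250–500 per well in 384-well plates had been exposed, from 24 hours after seeding, continuously for five days to inhibitors at 0.5, 1, 5, 10, 50, 100, 500 and 1000 nM.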

BEZ-235 = compound: Cn1c(=O)n(-c2ccc(C(C)(C)C#N)cc2)c2c3cc(-c4cnc5ccccc5c4)ccc3ncc21 [BEZ-235]; assay: as above; conditions: exposure time: 5 days
How it was run: as §1

| Test System | surviving fraction ([1]; 0.5 nM) | surviving fraction ([1]; 1 nM) | surviving fraction ([1]; 5 nM) | surviving fraction ([1]; 10 nM) | surviving fraction ([1]; 50 nM) | surviving fraction ([1]; 100 nM) | surviving fraction ([1]; 500 nM) | surviving fraction ([1]; 1000 nM) | surviving fraction (BEZ-235; 0.5 nM) | surviving fraction (BEZ-235; 1 nM) | surviving fraction (BEZ-235; 5 nM) | surviving fraction (BEZ-235; 10 nM) | surviving fraction (BEZ-235; 50 nM) | surviving fraction (BEZ-235; 100 nM) | surviving fraction (BEZ-235; 500 nM) | surviving fraction (BEZ-235; 1000 nM) |
| --- | --- | --- | --- | --- | --- | --- | --- | --- | --- | --- | --- | --- | --- | --- | --- | --- |
| CAL72 BONE | 1.09 ± 0.055 | 1.06 ± 0.043 | 1.04 ± 0.043 | 1.05 ± 0.027 | 0.993 ± 0.038 | 0.805 ± 0.045 | 0.235 ± 0.014 | 0.214 ± 0.031 | 1.05 ± 0.026 | 1.06 ± 0.041 | 1.07 ± 0.043 | 1.03 ± 0.041 | 0.754 ± 0.053 | 0.369 ± 0.021 | 0.142 ± 0.011 | 0.124 ± 0.0079 |
| CAL120 BREAST | 0.942 ± 0.024 | 0.876 ± 0.034 | 0.9035 ± 0.0069 | 0.867 ± 0.025 | 0.674 ± 0.035 | 0.441 ± 0.019 | 0.113 ± 0.025 | 0.0817 ± 0.0065 | 0.962 ± 0.022 | 0.9768 ± 0.0038 | 0.98 ± 0.011 | 0.911 ± 0.017 | 0.502 ± 0.029 | 0.296 ± 0.0058 | 0.102 ± 0.0053 | 0.0963 ± 0.0037 |
| CASKI CERVIX | 0.91 ± 0.034 | 0.901 ± 0.034 | 0.779 ± 0.05 | 0.922 ± 0.031 | 0.426 ± 0.022 | 0.147 ± 0.009 | 0.0347 ± 0.0047 | 0.338 ± 0.52 | 0.872 ± 0.028 | 0.922 ± 0.016 | 0.896 ± 0.065 | 0.882 ± 0.081 | 0.452 ± 0.021 | 0.292 ± 0.0061 | 0.127 ± 0.0064 | 0.096 ± 0.0036 |
| CHLA90 AUTONOMIC GANGLIA | 1.05 ± 0.018 | 1 ± 0.061 | 0.951 ± 0.077 | 0.86 ± 0.04 | 0.753 ± 0.015 | 0.586 ± 0.045 | 0.206 ± 0.014 | 0.102 ± 0.0045 | 0.983 ± 0.078 | 1 ± 0.033 | 0.979 ± 0.057 | 0.947 ± 0.05 | 0.644 ± 0.046 | 0.428 ± 0.024 | 0.175 ± 0.0087 | 0.106 ± 0.0023 |
| CME SYNOVIAL | 1.01 ± 0.027 | 1.09 ± 0.2 | 1.04 ± 0.042 | 1.12 ± 0.045 | 0.743 ± 0.083 | 0.681 ± 0.051 | 0.252 ± 0.022 | 0.28 ± 0.019 | 1.18 ± 0.12 | 1.28 ± 0.12 | 1.16 ± 0.066 | 1.26 ± 0.11 | 1.3 ± 0.11 | 1.12 ± 0.087 | 0.959 ± 0.076 | 0.713 ± 0.14 |
| COLO320DM LARGE INTESTINE | 1.07 ± 0.051 | 1.08 ± 0.08 | 0.994 ± 0.05 | 0.906 ± 0.029 | 0.5533 ± 0.0034 | 0.383 ± 0.037 | 0.215 ± 0.0076 | 0.18 ± 0.0044 | 1.06 ± 0.059 | 1.12 ± 0.08 | 1.14 ± 0.074 | 1.06 ± 0.039 | 0.869 ± 0.07 | 0.692 ± 0.034 | 0.328 ± 0.018 | 0.192 ± 0.0043 |
| DU4475 BREAST | 0.752 ± 0.16 | 0.767 ± 0.18 | 0.667 ± 0.25 | 0.639 ± 0.24 | 0.412 ± 0.074 | 0.301 ± 0.057 | 0.0443 ± 0.021 | 0.0323 ± 0.006 | 0.914 ± 0.16 | 1.05 ± 0.13 | 0.919 ± 0.16 | 0.835 ± 0.1 | 0.525 ± 0.064 | 0.194 ± 0.018 | 0.0427 ± 0.0085 | 0.035 ± 0.0035 |
| H23 LUNG | 0.989 ± 0.016 | 0.98 ± 0.078 | 0.872 ± 0.063 | 0.731 ± 0.042 | 0.422 ± 0.018 | 0.265 ± 0.028 | 0.127 ± 0.0091 | 0.0933 ± 0.005 | 1.02 ± 0.051 | 1.04 ± 0.081 | 0.961 ± 0.057 | 0.903 ± 0.042 | 0.496 ± 0.055 | 0.382 ± 0.033 | 0.22 ± 0.015 | 0.194 ± 0.0072 |
| HCC78 LUNG | 0.928 ± 0.31 | 0.845 ± 0.15 | 0.653 ± 0.27 | 0.588 ± 0.17 | 0.28 ± 0.048 | 0.104 ± 0.0093 | 0.022 ± 0.0044 | 0.0197 ± 0.0023 | 0.953 ± 0.086 | 0.943 ± 0.17 | 1.05 ± 0.23 | 1.09 ± 0.15 | 0.621 ± 0.18 | 0.393 ± 0.05 | 0.0757 ± 0.011 | 0.0527 ± 0.01 |
| HCC202 BREAST | 1.18 ± 0.25 | 1.37 ± 0.17 | 0.947 ± 0.27 | 0.94 ± 0.21 | 0.635 ± 0.18 | 0.295 ± 0.047 | 0.0793 ± 0.018 | 0.048 ± 0.013 | 1.02 ± 0.32 | 1.07 ± 0.036 | 1.21 ± 0.22 | 1.34 ± 0.32 | 1.07 ± 0.32 | 0.722 ± 0.27 | 0.388 ± 0.089 | 0.232 ± 0.046 |
